The results in this text go back to article PMC12448892 (2025).

In assay [1] the test system is ADH1 WT (DNA, G4) GGGGCCGGTAGCGAGTGATAGCGAGGGAAAGACGATCGCTATCGGGCCGTAAGGAGGAAATGGGAGGTTGGGGG
Kind of assay: circular dichroism. To be noted: 100 mM KCl; 10 mM Tris pH 7.5, 25 °C; 5 μM DNA, 10 μM PhenDC3; slight broadening of spectra. Background: Circular dichroism is the unequal absorption of left and right circularly polarised light.

Assay [2] has as its system ADH1 4_G MUT (DNA, G4) GTGGCCGGTAGCGAGTGATAGCGAGTGAAAGACGATCGCTATCGTGCCGTAAGGAGGAAATGTGAGGTTGGGGG
Kind of assay: circular dichroism. To be noted: 100 mM KCl; 10 mM Tris pH 7.5, 25 °C; 5 μM DNA, 10 μM PhenDC3; slight broadening of spectra.

For assay [3], the system named is ADH1 5_G MUT (DNA, G4) GTGGCCGGTAGCGAGTGATAGCGAGTGAAAGACGATCGCTATCGTGCCGTAACGAGGAAATGTGAGGTTGGGGG
Kind of assay: circular dichroism. Particulars: 100 mM KCl; 10 mM Tris pH 7.5, 25 °C; 5 μM DNA, 10 μM PhenDC3; slight broadening of spectra.

The test system of assay [4] is ADH1 WT (DNA, G4) GGGGCCGGTAGCGAGTGATAGCGAGGGAAAGACGATCGCTATCGGGCCGTAAGGAGGAAATGGGAGGTTGGGGG
Kind of assay: ThT fluorescence titration. Particulars: 10 mM KCl; 10 mM Tris pH 7.5, room temperature; 0.5 μM ThT; apparent.

The test system of assay [5] is ADH1 5_G MUT (DNA, G4) GTGGCCGGTAGCGAGTGATAGCGAGTGAAAGACGATCGCTATCGTGCCGTAACGAGGAAATGTGAGGTTGGGGG
Kind of assay: ThT fluorescence titration. Particulars: 10 mM KCl; 10 mM Tris pH 7.5, room temperature; 0.5 μM ThT; apparent.

The subject of assay [6] is ADH1 4_G MUT (DNA, G4) GTGGCCGGTAGCGAGTGATAGCGAGTGAAAGACGATCGCTATCGTGCCGTAAGGAGGAAATGTGAGGTTGGGGG
Kind of assay: ThT fluorescence titration. To be noted: 10 mM KCl; 10 mM Tris pH 7.5, room temperature; 0.5 μM ThT; apparent.

Take `C[n+]1cc(NC(=O)c2ccc3ccc4ccc(C(=O)Nc5cc6ccccc6[n+](C)c5)nc4c3n2)cc2ccccc21`: the binding entry in assay [1], in assay [2] and in assay [3] was “yes” throughout.
As to `Cc1ccc2c(c1)sc(-c1ccc(N(C)C)cc1)[n+]2C`, the k stood at 0.65 ± 0.04 µM in assay [4], 0.89 ± 0.13 µM in assay [5] and 0.76 ± 0.06 µM in assay [6].
